According to patent US20050107616A1, “Alpha-ketoamide derivatives as cathepsin k inhibitors” (priority 2001, published 2005):
Read-outs that look alike come from different tables or passages of the source.

Assays:
human cathepsin K = target: T1, human cathepsin K (Homo sapiens, UniProt P43235); assay: Cathepsin K inhibition assay, fluorogenic substrate Cbz-Phe-Arg-AMC, progress curve method; assay type: biochemical; details: human recombinant enzyme, pH 5.5, 30° C., 10 μM substrate, read-out: hCat K Ki
T1 construct: The proform of cathepsin K was converted to mature cathepsin K by brief exposure to pH 4; made in house; host or cells: baculovirus; Trichoplusia ni High Five cells (virus raised in Sf-9)
T1 sequence (P43235 115-329): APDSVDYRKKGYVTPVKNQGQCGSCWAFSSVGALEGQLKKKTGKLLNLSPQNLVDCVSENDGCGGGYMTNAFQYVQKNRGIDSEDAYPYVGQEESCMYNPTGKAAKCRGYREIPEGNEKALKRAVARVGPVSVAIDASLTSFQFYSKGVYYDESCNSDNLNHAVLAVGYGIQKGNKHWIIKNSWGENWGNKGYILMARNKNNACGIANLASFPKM
Outline: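 Recombinant human cathepsin K from insect cells, made mature by pH 4/L-cysteine activation, was assayed with 10 μM Cbz-Phe-Arg-AMC in 10% DMSO at 30° C. […]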

human cathepsin L = human cathepsin L (Homo sapiens, UniProt P07711); assay: Cathepsin L inhibition assay, fluorogenic substrate Cbz-Phe-Arg-AMC; assay type: biochemical; details: Table 2; enzyme from human liver tissue, pH 5.5, 30° C., 5 μM substrate; read-out: hCat L Ki
Procedure: All assays for cathepsin K were carried out with human and rat recombinant enzyme. Assays for cathepsins S Et V were also carried out with human recombinant enzyme. Assays for human cathepsins B. H. and L were carried out with enzyme, purchased from Athens Research and Technology, Inc., prepared from human liver tissue. Standard assay conditions for the determination of kinetic constants used a fluorogenic peptide substrate, typically (5S,8S)-13-amino-5-benzyl-13-imino-3-methylene-N-(4methyl-2-oxo-2H-chromen-7-yl)-6-oxo-1-phenyl-2-oxa-4,7,12-triazatridecane-8-carboxamide (Cbz-Phe-Arg-AMC), and were determined in 100 mM sodium acetate at pH 5.5 containing 10 mM dithiothreitol and 120 mM sodium chloride. A stock substrate solution of Cbz-Phe-Arg-AMC was prepared at a concentration of 50 mM in dimethyl sulfoxide. This substrate was diluted into the assay for a final substrate concentration of 10 μM in the rat cathepsin K, human cathepsin K, and human cathepsin B assays; a final substrate concentration of 5 μM in the human cathepsin L assay; and a final substrate concentration of 2 μM in the human cathepsin V assay.
All assays contained 10% dimethyl sulfoxide. […] All assays were conducted at 30° C. Product fluorescence (excitation at 360 nm; emission at 440 nm, (except cathepsin H which used excitation at 340 nm; emission at 420 nm)) was monitored with a PerSeptive Biosystems Cytofluor II fluorescence plate reader. Product progress curves were generated over 2.3 h monitoring the formation of 7-amino-4-methylcoumarin product (or β-naphthalamide for cathepsin H).
Potential inhibitors were evaluated using the progress curve method. Assays were carried out in the presence of variable concentrations of test compound. Reactions were initiated by addition of buffered solutions of inhibitor and substrate to enzyme. Data analysis was conducted according to one of two procedures depending on the appearance of the progress curves in the presence of inhibitors. For those compounds whose progress curves were linear, the enzymatic activity (RATE) was plotted against the concentration of test compound, including inhibitor concentration of zero ([I]=0), and the IC50 determined from a fit of equation 1 to the data, RATE=Vmax/(1+([I]/IC50)) (1) where Vmax is the best fit estimate of the maximal enzymatic activity. Ki values were calculated from IC50 values using equation 2 assuming a competitive model. [formula]

Chain of human cathepsin L (P07711 114-288 limits assumed): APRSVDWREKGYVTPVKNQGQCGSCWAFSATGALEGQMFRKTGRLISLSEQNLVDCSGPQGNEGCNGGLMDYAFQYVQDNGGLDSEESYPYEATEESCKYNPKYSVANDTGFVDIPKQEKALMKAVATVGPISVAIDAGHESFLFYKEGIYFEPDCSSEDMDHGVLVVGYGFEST
Chain of human cathepsin L (P07711 292-333 limits assumed): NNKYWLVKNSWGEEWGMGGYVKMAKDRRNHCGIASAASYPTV

| Ki (human cathepsin K; Table 1) | Ki (human cathepsin K; Table 2) | Ki (human cathepsin L) | SMILES |
| --- | --- | --- | --- |
| 0.01 to 1 nM | 0.01 to 1 nM | 1 to 100 nM | CCCC[C@H](NC(=O)O[C@H](c1nnc(-c2ccc(C(F)(F)F)cc2)o1)C(C)(C)C)C(=O)C(=O)Nc1ccn[nH]1 [Example 38, (1S)-2,2-dimethyl-1-{5-[4-(trifluoromethyl)phenyl]-1,3,4-oxadiazol-2-yl}propyl(1S)-1-[oxo(1H-pyrazol-5-ylamino)acetyl]pentylcarbamate] |
| 0.01 to 1 nM | 0.01 to 1 nM | 1 to 100 nM | CCCC[C@H](NC(=O)O[C@H](Cn1cnc(-c2ccc(C(F)(F)F)cc2)c1)C(C)(C)C)C(=O)C(=O)Nc1ccn[nH]1 [Example 7, (1S)-2,2-dimethyl-1-({4-[4-(trifluoromethyl)phenyl]-1H-imidazol-1-yl}methyl)propyl(1S)-1-[oxo(1H-pyrazol-5-ylamino)acetyl]pentylcarbamate] |
| 0.01 to 1 nM | 0.01 to 1 nM | 0.01 to 1 nM | CCCC[C@H](NC(=O)O[C@H](Cn1cnc2cc(Cl)c(Cl)cc21)C(C)(C)C)C(=O)C(=O)Nc1ccn[nH]1 [Example 37, (1S)-1-[(5,6-dichloro-1H-benzimidazol-1-yl)methyl]-2,2-dimethylpropyl(1S)-1-[oxo(1H-pyrazol-5-ylamino)acetyl]pentylcarbamate] |
| 0.01 to 1 nM | 0.01 to 1 nM | 1 to 100 nM | CCCC[C@H](NC(=O)O[C@H](c1nnc(-c2ccc(C(F)(F)F)cc2)o1)C(C)(C)C)C(=O)C(=O)NN1CCOC1=O [Example 39, (1S)-2,2-dimethyl-1-{5-[4-(trifluoromethyl)phenyl]-1,3,4-oxadiazol-2-yl}propyl(1S)-1-{oxo[(2-oxo-1,3-oxazolidin-3-yl)amino]acetyl}pentylcarbamate] |
| 1 to 100 nM | 1 to 100 nM | 100 to 10000 nM | CCCC[C@H](NC(=O)O[C@H](Cc1nnc(-c2ccc(F)cc2)o1)C(C)(C)C)C(=O)C(=O)Nc1ccnn1C (stereo in doubt) [Example 22, (1R)-1-{[5-(4-fluorophenyl)-1,3,4-oxadiazol-2-yl]methyl}-2,2-dimethylpropyl(1S)-1-[[(1-methyl-1H-pyrazol-5-yl)amino](oxo)acetyl]pentyl carbamate] |
| 0.01 to 1 nM | 0.01 to 1 nM | 1 to 100 nM | CCCC[C@H](NC(=O)O[C@H](Cn1ccc(-c2ccc(C(F)(F)F)cc2)n1)C(C)(C)C)C(=O)C(=O)Nc1ccn[nH]1 [Example 1] |
| 1 to 100 nM | 1 to 100 nM | 100 to 10000 nM | CCCC[C@H](NC(=O)O[C@H](Cn1cnc(-c2ccc(C(F)(F)F)cc2)c1)C(C)(C)C)C(=O)C(=O)Nc1ccnn1C1CCC1 [Example 35, (1S)-2,2-dimethyl-1-({4-[4-(trifluoromethyl)phenyl]-1H-imidazol-1-yl}methyl)propyl(1S)-1-[[(1-cyclobutyl-1H-pyrazol-5-yl)amino](oxo)acetyl]pentylcarbamate] |
